Results published in PubChem BioAssay (NCI).
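Each compound was tested at five concentrations against cells in 96-well plates for 48 hours. GI50: concentration for 50% inhibition of growth. Definition used: TGI = concentration required for complete inhibition of growth.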

What was measured:
Assay in all cases: NCI anticancer screen, dose series, 48 h
CCRF-CEM leukemia = tested on: CCRF-CEM leukemia
COLO 205 colon = tested on: COLO 205 colon
LOX IMVI melanoma = tested on: LOX IMVI melanoma
MOLT-4 leukemia = tested on: MOLT-4 leukemia
NCI-H23 lung = tested on: NCI-H23 lung
RXF 393 renal = tested on: RXF 393 renal
SK-OV-3 ovarian = tested on: SK-OV-3 ovarian
UACC-257 melanoma = tested on: UACC-257 melanoma
MDA-MB-231 breast = tested on: MDA-MB-231 breast
MDA-MB-435 = tested on: MDA-MB-435

Compound	TGI (CCRF-CEM leukemia) [µM]	TGI (COLO 205 colon) [µM]	TGI (LOX IMVI melanoma) [µM]	TGI (MOLT-4 leukemia) [µM]	TGI (NCI-H23 lung) [µM]	TGI (RXF 393 renal) [µM]	TGI (SK-OV-3 ovarian) [µM]	TGI (UACC-257 melanoma) [µM]	TGI (MDA-MB-231 breast) [µM]	TGI (MDA-MB-435) [µM]	GI50 (CCRF-CEM leukemia) [nM]	GI50 (COLO 205 colon) [nM]	GI50 (LOX IMVI melanoma) [nM]	GI50 (MDA-MB-231 breast) [nM]	GI50 (MOLT-4 leukemia) [nM]	GI50 (RXF 393 renal) [nM]	GI50 (SK-OV-3 ovarian) [nM]	GI50 (MDA-MB-435) [nM]	GI50 (NCI-H23 lung) [nM]	GI50 (UACC-257 melanoma) [nM]
CC(C)(C)OC(=O)NC1CCC(C(C)(C)C)CC1 (centres undefined)	> 100	> 100	> 100	67.2	> 100	> 92.2	> 100	> 61.8												
CC(C)(C)c1ccc(/C=N/NC(=O)CSCC(=O)N/N=C/c2ccc(C(C)(C)C)cc2)cc1		3.7		5.02	6.01	4.29	19.4	15.2	2.43											
Nc1nc(Nc2ccccc2)sc1C(=O)c1cccs1	16.6	22.7	27.3	43.9	38.1	20.2	90.2	32.5	68.6	29.4										
O=C(Nc1ccc(Cl)c(Cl)c1)N1N=C2c3ccccc3CCC2C1c1ccc(Cl)cc1 (centres undefined)	> 100	> 100	> 100	> 100	> 100	> 100	> 100	> 100	> 100	> 100										
C=CCSSCC=C	> 100	> 100	> 38.6	> 100	> 95.9	> 74	> 100	> 100	> 100	> 84.7										
O[C@@H]1C[C@H]2N3CC[C@@]2(c2cc4c(cc2C3)OCO4)[C@H]2O[C@@H]12	> 100	0.0204	> 100	> 100	> 100	> 100	> 100	> 100	> 100	> 100										
C[C@]12CC[C@H](O)CC1=CC[C@@H]1[C@@H]2CC[C@]2(C)C(=N/O)/C(=C/c3ccc([N+](=O)[O-])cc3)C[C@@H]12	> 100	15.7	21.5	20.5	25.6	15.6	22.5	16.5		40.8										
Cn1c2c3ccc(Cl)cc3nc-2c(Cl)c2ccccc21	> 100	40.1	72.3	> 100	36.1	36.9	> 100	37.4	97.8	38.2										
Cc1cc(C)nc(SCCc2cccc[n+]2C)n1	> 100	> 100	> 100	> 100	> 100	> 100	> 100	> 100	> 100	> 100										
Clc1ccc(-c2ccc(-c3nn4c(CNc5ccccc5)nnc4s3)o2)c(Cl)c1	> 100	> 100	> 100	> 100	> 100	86.2	> 100	> 100	> 100	> 100										
SC1CCCN(Cc2ccccc2)C1 (centres undefined)		33.7	34.7	78.2	81.5	> 100	> 100	> 100	> 100	> 100										
COc1cc(S(=O)(=O)Nc2nc(-c3ccc(N4C(=O)/C(=C/c5ccccc5[N+](=O)[O-])N=C4c4ccccc4)cc3)cs2)ccc1Cl	> 100	> 100	> 100	> 100	> 100	> 100	> 100	> 100	42.2	> 100										
O=C(Oc1ccc(Cl)cc1[N+](=O)[O-])c1ccccc1	> 100	> 100	> 100	> 100	> 100	> 100	> 100	> 100												
CC(=O)OCCOc1cc2c([nH]c3ccccc32)c(C)c2cccc1-2	> 30	3.22	6.57	> 100	5.17	4.4	18.5	3.74	3.38	5.6										
O=C1CCCC2C3CC(CN12)C1CCCCN1C3 (centres undefined)	> 100	> 100	> 100	> 100	> 100	> 100	> 100	> 100	> 100	> 100										
COC(=O)Nc1nc2ccc(NC(=O)c3cccs3)cc2[nH]1	> 100	> 100	> 100	> 100	> 100	86.7	> 100		> 100	39.4										
O=C1C(Cl)C(c2cc3cc(Br)ccc3nc2Cl)N1c1ccc(Cl)cc1 (centres undefined)	11.4	10.2	3.38	10.6	17.2	10.6	> 25	12.6	7.35	17.7										
CCCC(=O)O.CCCC(=O)O.CCCC(=O)O.CCCC(=O)O.[Rh].[Rh]	1.08	0.0406	0.225	0.141		0.052	0.829		0.108		27.7	18.6	104	32.2	31.5	22.4	278			
c1ccc(C[N+]23CN4CN(CN(C4)C2)C3)cc1	32.9	35.8	48.2	43.9	36.6	36.8	> 100	> 100	49.8	45.5										
O=C(COc1ccc(Cl)c(Cl)c1)N(Cc1ccccc1)Cc1ccc[n+](Cc2ccc(Cl)cc2S(=O)(=O)F)c1		> 100		54.8	> 100	> 100	> 100	> 100	31.9	> 100										
CN1CC(CNC(=O)OCc2ccccc2)CC2c3cccc4c3c(cn4C)CC21 (centres undefined)	7.81	2.75	3.21	5.25	10.6	3.2		2.81	3.28	3.53	2480	1370	1640	1650	2360	1740		1810	2610	1420
C=CCNS(=O)(=O)c1ncnc2nc[nH]c12	> 100	> 100	> 100	41.2	> 100	> 100	> 100	> 100	> 100	> 100										
COc1c(OC/C=C(\C)CCC=C(C)C)ccc2ccc(=O)oc12	> 100	> 100	> 100	> 100	> 100		> 100	> 100	> 100	> 100										
O=C(c1cc2c(c3ccccc13)NCCN=C2C(F)(F)F)C(F)(F)F	> 100		38.4	38	> 100	> 100	93.2	42.7	51.4	> 100										
O=C1OC2CC=CC1C2 (centres undefined)	> 100	> 100	> 100	> 100	> 100	> 100	> 100	> 100												
CC(=O)NNC(=O)C1CCCCN1 (centres undefined)	> 100	> 100	> 100	> 100	> 100	> 100	> 100	> 100	> 100	> 100										
C=C1C(=O)OC2CC1CCC1(C)OC1CCC(C)=CCCC2(C)O (centres undefined)	4.56	5.95	8.71	9.2	7.25	3.61	36.7	13.9												
CC[C@]12C=CCN3CC[C@@]4(c5cc(Br)c(OC)cc5N(C)[C@H]4[C@@](O)(C(=O)N[C@@H](Cc4ccc(O)cc4)C(=O)OC)[C@@H]1O)[C@@H]32	44	33.1	34.8	62.3	> 100	38.4	> 100	33.9	30.6	35.8										
O=C(/C=C/c1ccccc1)N1CCCCC1	> 100	> 100	> 100	> 100	> 100	> 100	> 100	> 100	> 100	> 100										
